Results: the supplement of paper PMC10331698
± gives the standard deviation of the averaged measurements.

Legend:
Experiment in all cases: level (log10 ratio to DMSO vehicle control); higher = higher biomarker level / cell amount than vehicle control
Settings in all cases: in DMSO
[1] = compound: O=C(O)CCC(F)(F)C(F)(F)C(F)(F)F [3:3 Fluorotelomer carboxylic acid]
Procedure: (§1)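 BioMAP Diversity Plus panel of 12 human primary cell co-culture systems (3C, 4H, LPS, SAg, BT, BF4T, BE3C, CASM3C, HDF3CGF, KF3CT, MyoF, Mphg). Compounds were added 1 h before stimulation and left for 24 h (MyoF 48 h; BT 72 h for soluble read-outs or 6 d for IgG). Biomarkers were read by ELISA, cytotoxicity by SRB, PBMC viability and proliferation by Alamar Blue. Each well value was divided by the mean of 8 DMSO control wells on the same plate and log10 transformed; duplicate blinded samples were tested at 4 concentrations.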

[2] = compound: C=CC(=O)OCCC(F)(F)C(F)(F)C(F)(F)C(F)(F)F [2-(Perfluorobutyl)ethyl acrylate]
Procedure: as §1

[3] = compound: O=C(O)C(F)(F)OC(F)(F)C(F)(F)OC(F)(F)C(F)(F)C(F)(F)C(F)(F)F [Perfluoro-3,6-dioxadecanoic acid]
Procedure: as §1

Test System | level (log10) ([1]; 6700 nM) | level (log10) ([1]; 20000 nM) | level (log10) ([1]; 60000 nM) | level (log10) ([2]; 6700 nM) | level (log10) ([2]; 20000 nM) | level (log10) ([2]; 60000 nM) | level (log10) ([3]; 6700 nM) | level (log10) ([3]; 20000 nM) | level (log10) ([3]; 60000 nM)
BF4T:MMP-9 | 0.0165 ± 0.07 | 0.002 ± 0.065 | 0.0285 ± 0.046 | -0.0015 ± 0.035 | -0.006 ± 0.057 | -0.013 ± 0.058 | -0.035 ± 0.0057 | -0.0215 ± 0.0064 | -0.051 ± 0.02
BF4T:PAI-I | 0.0025 ± 0.021 | -0.011 ± 0.018 | 0.006 ± 0.0014 | -0.006 ± 0.025 | 0.007 ± 0.03 | -0.0255 ± 0.025 | -0.057 ± 0.011 | -0.0575 ± 0.005 | -0.054 ± 0.042
BF4T:SRB | -0.008 ± 0.0057 | -0.0105 ± 0.0035 | 0 ± 0.0014 | -0.003 ± 0.0014 | -0.005 | -0.0085 ± 0.0021 | -0.024 ± 0.0014 | -0.023 ± 0.0057 | -0.053 ± 0.0085
BF4T:tPA | 0.004 ± 0.031 | -0.0005 ± 0.015 | 0.015 ± 0.0099 | 0.0005 ± 0.023 | -0.035 ± 0.023 | -0.0325 ± 0.00071 | -0.051 ± 0.0014 | -0.0565 ± 0.026 | 0.0105 ± 0.05
BF4T:uPA | 0.0025 ± 0.016 | 0 ± 0.011 | -0.01 ± 0.031 | -0.008 ± 0.028 | -0.009 ± 0.02 | -0.022 ± 0.03 | 0.0105 ± 0.005 | 0.008 ± 0.013 | 0.025 ± 0.031
BT:B cell Proliferation | -0.018 ± 0.0085 | -0.0115 ± 0.042 | -0.011 ± 0.02 | -0.018 ± 0.0014 | -0.0275 ± 0.011 | -0.264 ± 0.063 | 0.012 ± 0.0071 | 0.0415 ± 0.019 | 0.055 ± 0.011
BT:PBMC Cytotoxicity | 0.0035 ± 0.0064 | 0.012 ± 0.017 | 0.018 ± 0.014 | -0.028 ± 0.0014 | -0.073 ± 0.018 | -0.251 ± 0.057 | 0.017 ± 0.028 | 0.0265 ± 0.0021 | 0.0915 ± 0.005
BT:Secreted IgG | -0.011 ± 0.024 | -0.0295 ± 0.012 | -0.0155 ± 0.005 | 0.025 ± 0.017 | -0.053 ± 0.054 | -0.359 ± 0.049 | 0.0295 ± 0.012 | 0.0235 ± 0.033 | -0.0365 ± 0.0064
